# Test results taken from patent US20060019964A1, “Compounds” (priority 2002, published 2006).
# Key:
# [1] = Rat pharmacokinetics; format: in vivo, male CD Sprague Dawley rats
# Protocol: Compounds were dosed to male CD Sprague Dawley rats by single intravenous or oral administration at a nominal dose level of 1 mg/kg and 3 mg/kg respectively. Compounds were formulated in 5% DMSO,45% PEG200,50% water. An intravenous profile was obtained by taking serial or terminal blood samples at 0.083, 0.25, 0.5, 1, 2, 4, and 7 hours post dose. An oral profile was obtained by taking serial or terminal blood samples at 0.25, 0.5, 1, 2, 4, 7 and 12 hours post dose. Blood samples were taken directly into heparinised tubes. Blood samples were prepared by protein precipitation and subjected to quantitative analysis by LC-MS/MS using compound-specific mass transitions. Drug concentration-time profiles were generated and non-compartmental PK analysis used to generate estimates of half-life, clearance, volume of distribution and oral bioavailability.
# [2] = biological target: T1, histamine H3 receptor (Homo sapiens, UniProt Q9Y5N1); experiment: Histamine H3 functional antagonist assay ([35S]-GTPγS, CHO cell membranes); format: biochemical; details: functional antagonism vs histamine EC80, GTPγS; read-out: average pki (pKb) at H3 (converted)
# T1 construct: expressed in transfected cells; host or cells: CHO K1 cells carrying pSwitch, transfected with pGeneH3, induced with mifepristone; clone 3H3; membrane preparation
# Description: 2. H3 Receptor Cell Line Generation, Membrane Preparation and Functional GTPγS Assay Protocols
# Generation of Histamine H3 Cell Line
# The histamine H3 cDNA was isolated from its holding vector, pcDNA3.1 TOPO (InVitrogen), by restriction digestion of plasmid DNA with the enzymes BamH1 and Not-1 and ligated into the inducible expression vector pGene (InVitrogen) digested with the same enzymes. The GeneSwitch™ system (a system where in transgene expression is switched off in the absence of an inducer and switched on in the presence of an inducer) was performed as described in U.S. Pat. Nos. 5,364,791; 5,874,534; and 5,935,934. […]
# 10-14 days post selection 10 nM Mifepristone (InVitrogen), was added to the culture medium to induce the expression of the receptor. […] Receptor bound antibody was detected by incubation of the cells for 60 minutes on ice with a goat anti rabbit antibody, conjugated with Alexa 488 fluorescence marker (Molecular Probes). Following two further washes with Sorting Medium, cells were filtered through a 50 μm Filcon™ (BD Biosciences) and then analysed on a FACS Vantage SE Flow Cytometer fitted with an Automatic Cell Deposition Unit. […]
# [3] = biological target: T2, human H1 receptor (Homo sapiens, UniProt P35367); experiment: Histamine H1 functional antagonist assay (FLIPR); format: cell-based; details: functional antagonism vs histamine EC80, FLIPR, CHO cells; read-out: average pki (pKb) at H1 (converted)
# T2 construct: expressed in transfected cells
# Protocol: H1 Receptor Cell Line Generation and FLIPR Assay Protocol
# 1. Generation of Histamine H1 Cell Line
# The human H1 receptor was cloned using known procedures described in the literature [Biochem. Biophys. Res. Commun. 1994, 201(2), 894]. Chinese hamster ovary cells stably expressing the human H1 receptor were generated according to known procedures described in the literature [Br. J. Pharmacol. 1996, 117(6), 1071].
# Histamine H1 Functional Antagonist Assay […]
# 10 μl of test compound, diluted to the required concentration in Tyrodes buffer+probenecid (or 10 μl Tyrodes buffer+probenecid as a control) was added to each well and the plate incubated for 30 min at 37° C., 5% CO2. The plates were then placed into a FLIPR™ (Molecular Devioes, UK) to monitor cell fluorescence (λex=488 nm, λEM=540 nm) in the manner described in Sullivan et al. (In: Lambert DG (ed.), Calcium Signaling Protocols, New Jersey: Humana Press, 1999, 125-136) before and after the addition of 10 μl histamine at a concentration that results in the final assay concentration of histamine being EC80.
# Functional antagonism is indicated by a suppression of histamine induced increase in fluorescence, as measured by the FLIPR™ system (Molecular Devices). By means of concentration effect curves, functional affinities are determined using standard pharmacological mathematical analysis.
# [4] = Dog pharmacokinetics; format: in vivo, male Beagle dogs
# Protocol: Compounds were dosed to male Beagle dogs by single intravenous or oral administration at a nominal dose level of 1 mg/kg and 2 mg/kg respectively. The study was carried out according to a crossover design such that the same dog was used for both dosing events and the dosing events occurred 1 week apart. Compounds were formulated in 5% DMSO,45% Peg200,50% water. An intravenous profile was obtained by taking serial blood samples at 0.083, 0.25, 0.5, 0.75, 1, 2, 4, 6 & 12 hr post dose. An oral profile was obtained by taking serial blood samples at 0.25, 0.5, 0.75, 1, 2, 4, 6, 12 & 24 hr post dose. Blood samples were taken directly into heparinised tubes. Blood samples were prepared by protein precipitation and subjected to quantitative analysis by LC-MS/MS using compound-specific mass transitions. Drug concentration-time profiles were generated and non-compartmental PK analysis used to generate estimates of half-life, clearance, volume of distribution and oral bioavailability.
# [5] = CNS penetration; format: in vivo, male CD Sprague Dawley rats; details: male, CD Sprague Dawley, brain; rat, 1 mg/kg intravenous, 5 minutes post-dose; described as low CNS penetration; read-out: CNS penetration (compound in brain tissue)
# Protocol: Compounds were dosed intravenously at a nominal dose level of 1 mg/kg to male CD Sprague Dawley rats. Compounds were formulated in 5% DMSO/45% PEG200/50% water. Blood samples were taken under terminal anaesthesia with isoflurane at 5 minutes post-dose and the brains were also removed for assessment of brain penetration. Blood samples were taken directly into heparinised tubes. Blood samples were prepared for analysis using protein precipitation and brain samples were prepared using extraction of drug from brain by homogenisation and subsequent protein precipitation. The concentration of parent drug in blood and brain extracts was determined by quantitative LC-MS/MS analysis using compound-specific mass transitions.
# T2 sequence (P35367 whole entry): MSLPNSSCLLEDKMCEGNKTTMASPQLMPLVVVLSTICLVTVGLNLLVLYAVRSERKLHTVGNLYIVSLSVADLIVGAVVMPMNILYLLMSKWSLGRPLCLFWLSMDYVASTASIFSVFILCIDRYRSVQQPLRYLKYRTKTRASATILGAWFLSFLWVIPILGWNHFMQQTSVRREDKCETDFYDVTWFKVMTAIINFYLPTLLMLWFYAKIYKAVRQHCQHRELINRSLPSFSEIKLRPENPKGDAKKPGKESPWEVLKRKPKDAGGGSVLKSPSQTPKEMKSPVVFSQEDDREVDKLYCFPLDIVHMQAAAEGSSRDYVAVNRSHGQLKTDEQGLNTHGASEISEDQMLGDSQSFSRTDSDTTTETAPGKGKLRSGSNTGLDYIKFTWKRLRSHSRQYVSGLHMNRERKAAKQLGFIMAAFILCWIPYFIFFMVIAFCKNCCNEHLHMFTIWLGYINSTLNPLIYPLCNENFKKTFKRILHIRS
# T1 sequence (Q9Y5N1 whole entry, species assumed): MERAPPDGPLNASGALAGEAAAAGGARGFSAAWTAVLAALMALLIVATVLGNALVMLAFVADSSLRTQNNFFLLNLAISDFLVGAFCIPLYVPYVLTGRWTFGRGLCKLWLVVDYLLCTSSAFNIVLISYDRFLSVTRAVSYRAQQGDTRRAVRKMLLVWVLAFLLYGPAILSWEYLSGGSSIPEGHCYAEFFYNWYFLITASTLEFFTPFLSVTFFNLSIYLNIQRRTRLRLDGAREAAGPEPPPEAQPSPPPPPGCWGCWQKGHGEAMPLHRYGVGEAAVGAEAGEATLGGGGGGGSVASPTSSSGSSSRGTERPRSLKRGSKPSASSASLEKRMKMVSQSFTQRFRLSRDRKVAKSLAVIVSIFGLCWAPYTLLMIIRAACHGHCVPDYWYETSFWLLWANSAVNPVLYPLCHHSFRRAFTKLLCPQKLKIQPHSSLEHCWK
structure (smiles),measurement,setting,value
"CS(=O)(=O)c1ccc(C(=O)N2CCN(c3ccc(OC4CCN(C5CCC5)CC4)cc3)CC2)cc1 [compound of formula (I), 1-{4-[(1-Cyclobutyl-4-piperidinyl)oxy]phenyl}4-{[4-(methylsulfonyl)phenyl]carbonyl}piperazine]",clearance,"[1]; male, CD Sprague Dawley, whole blood, 1 mg/kg intravenous",~29 mL/min/kg
same,half-life,"[1]; male, CD Sprague Dawley, whole blood, IV route, 1 mg/kg",~120 min
same,oral bioavailability in the rat,[1]; oral 3 mg/kg vs intravenous 1 mg/kg,greater than 50 %F
same,Ki,[2],~0.251 nM
same,Ki,[3],~2510 nM
same,clearance,"[4]; male, Beagle, whole blood, 1 mg/kg intravenous",~10 mL/min/kg
same,half-life,"[4]; male, Beagle, whole blood, IV route, 1 mg/kg",~300 min
same,oral bioavailability in the dog,[4]; oral 2 mg/kg vs intravenous 1 mg/kg,about 99 % F
same,concentration at 5 min,[5],< 100 ng/g
